Results taken from PubChem BioAssay AID2060616 (Molecular Pharmacology Branch, DTP, NCI, 2025).

Test system: 377384-186-R-J1-PDC complex spheroid viability
Assay: Anticancer human tumor 377384-186-R-J1-PDC patient-derived pancreatic carcinoma cell line growth inhibition [CLK]
Details: for IC50: curve of first compound; for viability, T/C: stronger effect = lower value
How it was run: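 Patient-derived tumor cells grown as complex spheroids with HUVEC endothelial cells and mesenchymal stem cells, treated with drug combinations. Concentrations descend in half-log steps from near clinical Cmax, or from 10 microM if Cmax unknown.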

[1] = second compound 0.0316 µM, first compound 0.0316 µM
[2] = second compound 0.0316 µM, first compound 0.1 µM
[3] = second compound 0.0316 µM, first compound 0.316 µM
[4] = second compound 0.0316 µM, first compound 1 µM
[5] = second compound 0.0316 µM, first compound 3.16 µM
[6] = second compound 0.0316 µM, first compound 10 µM
[7] = second compound 0.1 µM, first compound 0.0316 µM
[8] = second compound 0.1 µM, first compound 0.1 µM
[9] = second compound 0.1 µM, first compound 0.316 µM
[10] = second compound 0.1 µM, first compound 1 µM
[11] = second compound 0.1 µM, first compound 3.16 µM
[12] = second compound 0.1 µM, first compound 10 µM
[13] = second compound 0.316 µM, first compound 0.0316 µM
[14] = second compound 0.316 µM, first compound 0.1 µM
[15] = second compound 0.316 µM, first compound 0.316 µM
[16] = second compound 0.316 µM, first compound 1 µM
[17] = second compound 0.316 µM, first compound 3.16 µM
[18] = second compound 0.316 µM, first compound 10 µM
[19] = second compound 1 µM, first compound 0.0316 µM
[20] = second compound 1 µM, first compound 0.1 µM
[21] = second compound 1 µM, first compound 0.316 µM
[22] = second compound 1 µM, first compound 1 µM
[23] = second compound 1 µM, first compound 3.16 µM
[24] = second compound 1 µM, first compound 10 µM
[25] = second compound 3.16 µM, first compound 0.0316 µM
[26] = second compound 3.16 µM, first compound 0.1 µM
[27] = second compound 3.16 µM, first compound 0.316 µM
[28] = second compound 3.16 µM, first compound 1 µM
[29] = second compound 3.16 µM, first compound 3.16 µM
[30] = second compound 3.16 µM, first compound 10 µM
[31] = second compound 10 µM, first compound 0.0316 µM
[32] = second compound 10 µM, first compound 0.1 µM
[33] = second compound 10 µM, first compound 0.316 µM
[34] = second compound 10 µM, first compound 1 µM
[35] = second compound 10 µM, first compound 3.16 µM
[36] = second compound 10 µM, first compound 10 µM
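Note: spheroids exposed to agents for 7 days before reading.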
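Throughout, for viability, T/C: luminescence signal used as a stand-in for viable cells.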

## C#Cc1c(F)ccc2cc(O)cc(-c3ncc4c(N5CC6CCC(C5)N6)nc(OCC56CCCN5CC(F)C6)nc4c3F)c12 (stereo not drawn) + CN1CCN(c2cc(C(=O)Nc3cc4cc(-c5cnn(C)c5)ccc4cn3)ccn2)CC1
Second compound 0.0316 µM
  IC50: < 31.6 nM
Second compound 0.1 µM
  IC50: < 31.6 nM
Second compound 0.316 µM
  IC50: < 31.6 nM
Second compound 1 µM
  IC50: < 31.6 nM
Second compound 3.16 µM
  IC50: < 31.6 nM
Second compound 10 µM
  IC50: < 31.6 nM
[1]
  viability, T/C: 23.7%
[2]
  viability, T/C: 9.22%
[3]
  viability, T/C: 5.47%
[4]
  viability, T/C: 3.59%
[5]
  viability, T/C: 1.91%
[6]
  viability, T/C: 2.78%
[7]
  viability, T/C: 17.5%
[8]
  viability, T/C: 9.27%
[9]
  viability, T/C: 3.82%
[10]
  viability, T/C: 2.55%
[11]
  viability, T/C: 1.86%
[12]
  viability, T/C: 1.3%
[13]
  viability, T/C: 6.63%
[14]
  viability, T/C: 2.9%
[15]
  viability, T/C: 2.56%
[16]
  viability, T/C: 1.32%
[17]
  viability, T/C: 1.33%
[18]
  viability, T/C: 0.82%
[19]
  viability, T/C: 0.45%
[20]
  viability, T/C: 0.37%
[21]
  viability, T/C: 0.27%
[22]
  viability, T/C: 0.32%
[23]
  viability, T/C: 0.34%
[24]
  viability, T/C: 0.4%
[25]
  viability, T/C: 0.26%
[26]
  viability, T/C: 0.6%
[27]
  viability, T/C: 0.24%
[28]
  viability, T/C: 0.33%
[29]
  viability, T/C: 0.38%
[30]
  viability, T/C: 0.56%
[31]
  viability, T/C: 0.1%
[32]
  viability, T/C: 0.21%
[33]
  viability, T/C: 0.19%
[34]
  viability, T/C: 0.33%
[35]
  viability, T/C: 0.22%
[36]
  viability, T/C: 0.49%

## CC(CO)NC(=O)c1cc(-c2ccc(Cl)cc2)nn(-c2cnn(C)c2)c1=O (stereo not drawn) + CN1CCN(c2cc(C(=O)Nc3cc4cc(-c5cnn(C)c5)ccc4cn3)ccn2)CC1
Second compound 0.0316 µM
  IC50: > 10000 nM
Second compound 0.1 µM
  IC50: > 10000 nM
Second compound 0.316 µM
  IC50: < 31.6 nM
Second compound 1 µM
  IC50: < 31.6 nM
Second compound 3.16 µM
  IC50: < 31.6 nM
Second compound 10 µM
  IC50: < 31.6 nM
[1]
  viability, T/C: 104%
[2]
  viability, T/C: 118%
[3]
  viability, T/C: 101%
[4]
  viability, T/C: 93.5%
[5]
  viability, T/C: 82.3%
[6]
  viability, T/C: 51.5%
[7]
  viability, T/C: 107%
[8]
  viability, T/C: 105%
[9]
  viability, T/C: 85.5%
[10]
  viability, T/C: 101%
[11]
  viability, T/C: 77.7%
[12]
  viability, T/C: 57%
[13]
  viability, T/C: 33.6%
[14]
  viability, T/C: 30.6%
[15]
  viability, T/C: 27.8%
[16]
  viability, T/C: 31.3%
[17]
  viability, T/C: 31.9%
[18]
  viability, T/C: 29.1%
[19]
  viability, T/C: 1.54%
[20]
  viability, T/C: 1.76%
[21]
  viability, T/C: 1.91%
[22]
  viability, T/C: 1.77%
[23]
  viability, T/C: 2.49%
[24]
  viability, T/C: 2.71%
[25]
  viability, T/C: 0.34%
[26]
  viability, T/C: 1%
[27]
  viability, T/C: 0.42%
[28]
  viability, T/C: 0.4%
[29]
  viability, T/C: 0.66%
[30]
  viability, T/C: 0.95%
[31]
  viability, T/C: 0.55%
[32]
  viability, T/C: 0.43%
[33]
  viability, T/C: 0.69%
[34]
  viability, T/C: 0.78%
[35]
  viability, T/C: 0.94%
[36]
  viability, T/C: 0.42%

## CC(Nc1ccc2c(c1)OCCn1cc(N3C(=O)OCC3C(F)F)nc1-2)C(N)=O (stereo not drawn) + CN1CCN(c2cc(C(=O)Nc3cc4cc(-c5cnn(C)c5)ccc4cn3)ccn2)CC1
Second compound 0.0316 µM
  IC50: 5170 nM
Second compound 0.1 µM
  IC50: 1460 nM
Second compound 0.316 µM
  IC50: < 31.6 nM
Second compound 1 µM
  IC50: < 31.6 nM
Second compound 3.16 µM
  IC50: < 31.6 nM
Second compound 10 µM
  IC50: < 31.6 nM
[1]
  viability, T/C: 85.8%
[2]
  viability, T/C: 83.1%
[3]
  viability, T/C: 72.2%
[4]
  viability, T/C: 69.4%
[5]
  viability, T/C: 53.4%
[6]
  viability, T/C: 43.4%
[7]
  viability, T/C: 90%
[8]
  viability, T/C: 79.3%
[9]
  viability, T/C: 50.6%
[10]
  viability, T/C: 57.4%
[11]
  viability, T/C: 50.5%
[12]
  viability, T/C: 39.4%
[13]
  viability, T/C: 23.5%
[14]
  viability, T/C: 23.6%
[15]
  viability, T/C: 18.5%
[16]
  viability, T/C: 19.8%
[17]
  viability, T/C: 18.3%
[18]
  viability, T/C: 18.4%
[19]
  viability, T/C: 2.08%
[20]
  viability, T/C: 1.88%
[21]
  viability, T/C: 2.17%
[22]
  viability, T/C: 1.6%
[23]
  viability, T/C: 1.66%
[24]
  viability, T/C: 2.21%
[25]
  viability, T/C: 0.29%
[26]
  viability, T/C: 0.96%
[27]
  viability, T/C: 0.62%
[28]
  viability, T/C: 0.3%
[29]
  viability, T/C: 0.47%
[30]
  viability, T/C: 0.64%
[31]
  viability, T/C: 0.32%
[32]
  viability, T/C: 1.36%
[33]
  viability, T/C: 0.49%
[34]
  viability, T/C: 0.37%
[35]
  viability, T/C: 0.69%
[36]
  viability, T/C: 0.37%

## COc1c(OCCCN2CCOCC2)ccc2c3n(c(=NC(=O)c4cnc(N)nc4)nc12)CCN3 + CN1CCN(c2cc(C(=O)Nc3cc4cc(-c5cnn(C)c5)ccc4cn3)ccn2)CC1
Second compound 0.0316 µM
  IC50: 41.8 nM
Second compound 0.1 µM
  IC50: 38.9 nM
Second compound 0.316 µM
  IC50: < 3.16 nM
Second compound 1 µM
  IC50: < 3.16 nM
Second compound 3.16 µM
  IC50: < 3.16 nM
Second compound 10 µM
  IC50: < 3.16 nM
Second compound 0.0316 µM, first compound 0.00316 µM
  viability, T/C: 103%
Second compound 0.0316 µM, first compound 0.01 µM
  viability, T/C: 72.8%
[1]
  viability, T/C: 55.2%
[2]
  viability, T/C: 37.8%
[3]
  viability, T/C: 24.9%
[4]
  viability, T/C: 15%
Second compound 0.1 µM, first compound 0.00316 µM
  viability, T/C: 89.9%
Second compound 0.1 µM, first compound 0.01 µM
  viability, T/C: 77.2%
[7]
  viability, T/C: 48%
[8]
  viability, T/C: 37.6%
[9]
  viability, T/C: 25.3%
[10]
  viability, T/C: 14.5%
Second compound 0.316 µM, first compound 0.00316 µM
  viability, T/C: 31.7%
Second compound 0.316 µM, first compound 0.01 µM
  viability, T/C: 22.1%
[13]
  viability, T/C: 18.7%
[14]
  viability, T/C: 16.6%
[15]
  viability, T/C: 14.2%
[16]
  viability, T/C: 11.9%
Second compound 1 µM, first compound 0.00316 µM
  viability, T/C: 2.68%
Second compound 1 µM, first compound 0.01 µM
  viability, T/C: 2.64%
[19]
  viability, T/C: 1.8%
[20]
  viability, T/C: 1.85%
[21]
  viability, T/C: 2.19%
[22]
  viability, T/C: 2.43%
Second compound 3.16 µM, first compound 0.00316 µM
  viability, T/C: 0.37%
Second compound 3.16 µM, first compound 0.01 µM
  viability, T/C: 0.47%
[25]
  viability, T/C: 0.92%
[26]
  viability, T/C: 0.45%
[27]
  viability, T/C: 0.44%
[28]
  viability, T/C: 1.06%
Second compound 10 µM, first compound 0.00316 µM
  viability, T/C: 0.5%
Second compound 10 µM, first compound 0.01 µM
  viability, T/C: 0.28%
[31]
  viability, T/C: 0.28%
[32]
  viability, T/C: 0.32%
[33]
  viability, T/C: 0.33%
[34]
  viability, T/C: 0.34%
